Measurements as given in patent US9693983B2, “Use of glyceryl trinitrate for treating traumatic edema” (G. Pohl-Boskamp GmbH & Co. KG, priority 2010, dated 2017).

Test system: traumatic edema
Assay: Topical application of GTN to traumatic edema, general observation
Format: in vivo
Text: The detumescence of the swelling associated with a traumatic edema is accelerated; instead of darkening of the skin, the healing occurs with a green, followed by a yellow, coloration of the affected skin area.

O=[N+]([O-])OCC(CO[N+](=O)[O-])O[N+](=O)[O-] [GTN, glyceryl trinitrate]
typical swelling and darkening of the affected skin sites (1.2 to 6 mg GTN on day of injury, then 0.8 to 1.6 mg GTN daily, topical): reduces and/or prevents
individual healing phases (compared to an untreated edema): significantly shortened
reduction of overall healing period for the treated edemas (compared to an untreated edema): one-half
healing of traumatic edema (topically applied): greatly accelerates
